The subject of one series is HIV-2 protease. Nature of the series: Inhibition of HIV-2 protease. The series is classed as biochemical. Conditions: statement in words.
Series [1] can be described thus: Oral bioavailability in dogs, Protocol A (solid dosage forms). The series is classed as in vivo, beagle dogs. Conditions: dog, plasma; unformulated solid in a capsule dosage form, 5 mg/kg oral dose in dogs. As to the method: Each dog received a single solid dosage form corresponding to a 5 mg/kg dose of the drug.
The target of the next series is HIV-1 protease (HIV-1 M:B_HXB2R, UniProt P04585). It counts as biochemical.

“Also recorded” adds a separate entry of the source.

What is called bioavailability is the share of a dose that reaches the circulation, judged against a reference dose that is usually intravenous.

For `CC(C)c1nc(CN(C)C(=O)N[C@H](C(=O)N[C@@H](Cc2ccccc2)C[C@H](O)[C@H](Cc2ccccc2)NC(=O)OCc2cncs2)C(C)C)cs1` [Compound III, (2S,3S,5S)-5-(N-(N-((N-Methyl-N-((2-isopropyl-4-thiazolyl)methyl)-amino)carbonyl)valinyl)amino)-2-(N-((5-thiazolyl)methoxycarbonyl)amino)-1,6-diphenyl-3-hydroxyhexane], the “inhibition of HIV-2 protease” value in the series on HIV-2 protease is “inhibitors”. In series [1], this compound registered a bioavailability of under 2%. Further, on HIV-1 protease, the “inhibition of HIV-1 protease” value is “inhibitors”.

Turning to `CC(C)c1nc(CN(C)C(=O)NC(C(=O)NC(Cc2ccccc2)CC(O)C(Cc2ccccc2)NC(=O)OCc2cncs2)C(C)C)cs1` (stereo not drawn) [Compound II], the results for the “inhibition of HIV-2 protease” value in the series on HIV-2 protease and with HIV-2 protease (listed as formula II) were “inhibitors” and “especially effective”, respectively. At HIV-1 protease, the “inhibition of HIV-1 protease” value is on record as “especially effective; also recorded: inhibitors”.

The values are drawn from patent publication US5484801A, “Pharmaceutical composition for inhibiting HIV protease” (Abbott Laboratories, priority 1995, dated 1996).
